5 compounds from PubChem BioAssay AID328 (DTP/NCI, 2004) can be followed below.

The structures appear in SMILES notation. Where “and” joins values, the source holds several entries; their conditions need not be identical. Identical values can stand only once. Toxic doses and inconclusive results are not listed.

In this assay the test system is BDF1 mice, P388 leukemia ip, median survival T/C. Briefly: NCI In Vivo Anticancer Drug Screen. Data for tumor model P388 Leukemia (intraperitoneal) in B6D2F1 (BDF1) mice. Conditions: endpoint: median survival time, higher = longer survival. Put shortly:
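Steps: implant the tumour, treat one group with compound and another with vehicle, record survival, then divide treated by control.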

As for `CO[C@H]1/C=C/O[C@@]2(C)Oc3c(C)c(O)c4c(O)c(c(/C=N/N5C(C)CN(Cc6ccccc6)CC5C)c(O)c4c3C2=O)NC(=O)/C(C)=C\C=C\[C@H](C)[C@H](O)[C@@H](C)[C@@H](O)[C@@H](C)[C@H](OC(C)=O)[C@@H]1C` (some centres undefined), the T/C is 94 % of control (dose: 12.5 mg/kg/injection, schedule: Q01DX005 (ip), vehicle: Klucel (hydroxypropylcellulose) (HPC)); 97 % of control (dose: 12.5 mg/kg/injection, schedule: Q01DX005 (ip), vehicle: other); 103 % of control (dose: 12.5 mg/kg/injection, schedule: Q01DX005 (oral), vehicle: other); 89 % of control (dose: 12.5 mg/kg/injection, schedule: Q02DX Z (oral), vehicle: Klucel (hydroxypropylcellulose) (HPC)); 97 % of control (dose: 25.0 mg/kg/injection, schedule: Q01DX005 (ip), vehicle: Klucel (hydroxypropylcellulose) (HPC)); 106 % of control (dose: 25.0 mg/kg/injection, schedule: Q01DX005 (ip), vehicle: other). Also, the T/C is 104 % of control (dose: 25.0 mg/kg/injection, schedule: Q01DX005 (oral), vehicle: Klucel (hydroxypropylcellulose) (HPC)); 103 % of control (dose: 25.0 mg/kg/injection, schedule: Q01DX005 (oral), vehicle: other); 105 % of control (dose: 25.0 mg/kg/injection, schedule: Q02DX Z (ip), vehicle: Klucel (hydroxypropylcellulose) (HPC)); 94 % of control (dose: 50.0 mg/kg/injection, schedule: Q01DX005 (ip), vehicle: Klucel (hydroxypropylcellulose) (HPC)); 103 % of control (dose: 50.0 mg/kg/injection, schedule: Q01DX005 (ip), vehicle: other); 104 % of control (dose: 50.0 mg/kg/injection, schedule: Q01DX005 (oral), vehicle: Klucel (hydroxypropylcellulose) (HPC)). In addition, the T/C was 104 % of control (dose: 50.0 mg/kg/injection, schedule: Q01DX005 (oral), vehicle: other); 90 % of control (dose: 50.0 mg/kg/injection, schedule: Q01DX009 (ip), vehicle: Klucel (hydroxypropylcellulose) (HPC)); 105 % of control (dose: 50.0 mg/kg/injection, schedule: Q02DX Z (ip), vehicle: Klucel (hydroxypropylcellulose) (HPC)); 99 % of control (dose: 50.0 mg/kg/injection, schedule: Q02DX Z (oral), vehicle: Klucel (hydroxypropylcellulose) (HPC)); 100 % of control (dose: 100.0 mg/kg/injection, schedule: Q01DX005 (ip), vehicle: Klucel (hydroxypropylcellulose) (HPC)); 106 % of control (dose: 100.0 mg/kg/injection, schedule: Q01DX005 (ip), vehicle: other). For the same compound, the T/C reads like this: (dose: 100.0 mg/kg/injection, schedule: Q01DX005 (oral), vehicle: Klucel (hydroxypropylcellulose) (HPC)) 105 % of control; (dose: 100.0 mg/kg/injection, schedule: Q01DX005 (oral), vehicle: other) 114 % of control; (dose: 100.0 mg/kg/injection, schedule: Q01DX009 (ip), vehicle: Klucel (hydroxypropylcellulose) (HPC)) 100 % of control; (dose: 100.0 mg/kg/injection, schedule: Q02DX Z (ip), vehicle: Klucel (hydroxypropylcellulose) (HPC)) 110 % of control; (dose: 100.0 mg/kg/injection, schedule: Q02DX Z (oral), vehicle: Klucel (hydroxypropylcellulose) (HPC)) 100 % of control; (dose: 200.0 mg/kg/injection, schedule: Q01DX005 (ip), vehicle: Klucel (hydroxypropylcellulose) (HPC)) 86 % of control. Besides, the T/C (dose: 200.0 mg/kg/injection, schedule: Q01DX005 (ip), vehicle: other) was 112 % of control; the T/C (dose: 200.0 mg/kg/injection, schedule: Q01DX005 (oral), vehicle: Klucel (hydroxypropylcellulose) (HPC)) was 105 % of control; the T/C (dose: 200.0 mg/kg/injection, schedule: Q01DX009 (ip), vehicle: Klucel (hydroxypropylcellulose) (HPC)) was 100 % of control; the T/C (dose: 200.0 mg/kg/injection, schedule: Q02DX Z (ip), vehicle: Klucel (hydroxypropylcellulose) (HPC)) is 110 % of control; the T/C (dose: 200.0 mg/kg/injection, schedule: Q02DX Z (oral), vehicle: Klucel (hydroxypropylcellulose) (HPC)) is 89 % of control; the T/C (dose: 400.0 mg/kg/injection, schedule: Q01DX005 (ip), vehicle: Klucel (hydroxypropylcellulose) (HPC)) is 97 % of control. The T/C is, setting by setting: (dose: 400.0 mg/kg/injection, schedule: Q01DX005 (oral), vehicle: Klucel (hydroxypropylcellulose) (HPC)) 106 % of control; (dose: 400.0 mg/kg/injection, schedule: Q02DX Z (ip), vehicle: Klucel (hydroxypropylcellulose) (HPC)) 116 % of control; (dose: 400.0 mg/kg/injection, schedule: Q02DX Z (oral), vehicle: Klucel (hydroxypropylcellulose) (HPC)) 91 % of control; (dose: 800.0 mg/kg/injection, schedule: Q01DX005 (oral), vehicle: Klucel (hydroxypropylcellulose) (HPC)) 104 % of control; (dose: 800.0 mg/kg/injection, schedule: Q02DX Z (ip), vehicle: Klucel (hydroxypropylcellulose) (HPC)) 110 % of control; (dose: 1600.0 mg/kg/injection, schedule: Q01DX005 (oral), vehicle: Klucel (hydroxypropylcellulose) (HPC)) 110 % of control. For the same compound, the T/C (dose: 1600.0 mg/kg/injection, schedule: Q02DX Z (ip), vehicle: Klucel (hydroxypropylcellulose) (HPC)) is 109 % of control.
`N=C(N)SCc1c2ccccc2c(CSC(=N)N)c2ccccc12`: the T/C by setting is: (dose: 2.5 mg/kg/injection, schedule: Q01DX010 (ip), vehicle: saline) 183 % of control; (dose: 5.0 mg/kg/injection, schedule: Q01DX010 (ip), vehicle: saline) 220 % of control; (dose: 10.0 mg/kg/injection, schedule: Q01DX010 (ip), vehicle: saline) 235 % of control and 195 % of control; (dose: 20.0 mg/kg/injection, schedule: Q01DX010 (ip), vehicle: saline) 208 % of control and 215 % of control.
For `c1ccc(CN(CCNc2ccccc2)c2ccccc2)cc1`, the T/C reads like this: (dose: 0.78 mg/kg/injection, schedule: Q01DX009 (ip), vehicle: water) 106 % of control; (dose: 1.56 mg/kg/injection, schedule: Q01DX009 (ip), vehicle: water) 104 % of control; (dose: 3.12 mg/kg/injection, schedule: Q01DX009 (ip), vehicle: water) 108 % of control; (dose: 6.25 mg/kg/injection, schedule: Q01DX009 (ip), vehicle: water) 104 % of control; (dose: 12.5 mg/kg/injection, schedule: Q01DX009 (ip), vehicle: water) 106 % of control; (dose: 25.0 mg/kg/injection, schedule: Q01DX009 (ip), vehicle: water) 92 % of control. Further, the T/C runs as follows: (dose: 50.0 mg/kg/injection, schedule: Q01DX009 (ip), vehicle: water) 92 % of control; (dose: 50.0 mg/kg/injection, schedule: Q04DX003 (ip), vehicle: water) 100 % of control; (dose: 100.0 mg/kg/injection, schedule: Q01DX009 (ip), vehicle: water) 115 % of control; (dose: 100.0 mg/kg/injection, schedule: Q04DX003 (ip), vehicle: water) 98 % of control; (dose: 200.0 mg/kg/injection, schedule: Q01DX009 (ip), vehicle: water) 97 % of control; (dose: 200.0 mg/kg/injection, schedule: Q04DX003 (ip), vehicle: water) 103 % of control.
Regarding `CC1=CC(=NN=c2cc(C)n([O-])c(C)c2)C=C(C)[N+]1=O`, the T/C (dose: 12.5 mg/kg/injection, schedule: Q01DX010 (ip), vehicle: saline) was 91 % of control and 104 % of control and 114 % of control.
In the case of `Cc1ccc2scc3c4ccccc4nc-3c2c1`, the T/C is, setting by setting: (dose: 2.5 mg/kg/injection, schedule: Q01DX009 (ip), vehicle: saline) 94 % of control; (dose: 5.0 mg/kg/injection, schedule: Q01DX009 (ip), vehicle: saline) 107 % of control; (dose: 10.0 mg/kg/injection, schedule: Q01DX009 (ip), vehicle: saline) 114 % of control; (dose: 12.5 mg/kg/injection, schedule: Q01DX009 (ip), vehicle: saline) 113 % of control and 124 % of control; (dose: 20.0 mg/kg/injection, schedule: Q01DX009 (ip), vehicle: saline) 94 % of control; (dose: 25.0 mg/kg/injection, schedule: Q01DX009 (ip), vehicle: saline) 113 % of control and 124 % of control. Moreover, the T/C reads like this: (dose: 56.25 mg/kg/injection, schedule: Q04DX003 (ip), vehicle: saline) 104 % of control; (dose: 75.0 mg/kg/injection, schedule: Q01DX009 (ip), vehicle: saline) 100 % of control and 104 % of control; (dose: 112.5 mg/kg/injection, schedule: Q01DX009 (ip), vehicle: saline) 96 % of control; (dose: 112.5 mg/kg/injection, schedule: Q04DX003 (ip), vehicle: saline) 113 % of control.
